Assay results published in patent US12590062B2, “PD-1/PD-L1 inhibitors” (Gilead Sciences, Inc., priority 2017, dated 2026).

Key:
[1] = biological target: T1, PD-L1 (Homo sapiens, UniProt Q9NZQ7); assay: PD-L1/PD-L1 dimerization biochemical protein-protein interaction assay (ALPHA); type: binding; conditions: compound-induced PD-L1 dimerization, head prints '1 nM' (0.5 nM His-tagged PD-L1 and 0.5 nM FLAG-tagged PD-L1), read-out: AC50 PDL1 Dimer Alpha 1 nM
T1 construct: determine if they can specifically dimerize the extracellular domains of PD-L1
T1 sequence (Q9NZQ7 19-238 limits assumed): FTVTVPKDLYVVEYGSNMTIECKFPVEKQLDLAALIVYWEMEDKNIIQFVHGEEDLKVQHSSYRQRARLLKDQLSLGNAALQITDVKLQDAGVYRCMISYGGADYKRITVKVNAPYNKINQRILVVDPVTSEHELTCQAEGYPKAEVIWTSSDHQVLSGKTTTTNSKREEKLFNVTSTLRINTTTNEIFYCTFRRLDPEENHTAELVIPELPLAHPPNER
T1 sequence (Q9NZQ7 19-238 limits assumed): as above
Outline: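 After 2 h at 25 °C with compound, His- and FLAG-tagged PD-L1 ECDs (each 0.5 nM final; 25 mM Hepes pH 7.4, 150 mM NaCl) were detected by sequential anti-His acceptor and anti-FLAG donor bead incubations. Dose-response curves fitted to four-parameter equation for AC50.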

[2] = biological target: PD-1/PD-L1 (Homo sapiens, UniProt Q9NZQ7); assay: PD-1/PD-L1 biochemical protein-protein interaction assay (ALPHA); type: binding; conditions: 0.3 nM His tagged PD-L1, 2.5 nM biotinylated Fc-PD-1, 60 minutes at 25° C., read-out: IC50 PD-L1-PD-1 Alpha IC50-mono PD-L1-fcP-D1
Chain of PD-1/PD-L1 (Q9NZQ7 19-238 limits assumed): as above
Outline: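 Bead proximity read-out: compound-driven loss of ALPHA signal between anti-His acceptor and streptavidin donor beads (20 μg/mL acceptor). Proteins: 0.3 nM His-PD-L1, 2.5 nM biotin-Fc-PD-1, final. 60 min, 25° C, Hepes pH 7.4 buffer. IC50 via four-parameter dose-response fit.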

[3] = biological target: T2, PD-1/PD-L1 interaction (Homo sapiens, UniProt Q9NZQ7); assay: PD-1/PD-L1 NFAT reporter co-culture assay; type: cell-based; conditions: Jurkat PD-1 NFAT-luciferase cells co-cultured with aAPC-PD-L1 CHO cells, 6 hrs at 37° C.; read-out: EC50 NFAT Luciferase
T2 construct: expressed in transfected cells; host or cells: CHO cells (aAPC-PD-L1) co-cultured with Jurkat cells overexpressing PD-1 and an NFAT-luciferase reporter
T2 sequence (Q9NZQ7 19-290): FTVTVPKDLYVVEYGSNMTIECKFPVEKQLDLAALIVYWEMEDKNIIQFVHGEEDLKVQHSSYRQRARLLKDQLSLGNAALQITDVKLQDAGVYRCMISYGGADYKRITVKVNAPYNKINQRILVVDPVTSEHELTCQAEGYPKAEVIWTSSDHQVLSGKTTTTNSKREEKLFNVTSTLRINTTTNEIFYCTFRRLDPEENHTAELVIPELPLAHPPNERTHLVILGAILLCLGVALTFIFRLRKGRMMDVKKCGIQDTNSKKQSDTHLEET
Outline: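 CHO aAPC-PD-L1 seeded overnight; PD-1/NFAT-luc Jurkat + cpd in RPMI 1640, 2% FBS added at once; 6 h, 37 °C; ONE-Glo luminescence; EC50, 4-parameter fit.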

[4] = biological target: T3, interaction between the recombinant extracellular domain (ECD) of PD-1 and native cell-bound PD-L1 (Homo sapiens, UniProt Q9NZQ7); assay: CHO/PD-L1 cell capture assay; type: cell-based; conditions: CHO cells overexpressing PD-L1, pre-incubated 1 hr with compound, captured on biotinylated Fc-PD-1 coated plates, 75 min at room temperature
T3 construct: expressed in transfected cells
T3 sequence (Q9NZQ7 19-290): as above
Outline: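 EC50 values came from four-parameter fits of counts of Draq5-stained CHO-PD-L1 cells retained on plate-bound biotinylated Fc-PD-1 ECD, enumerated by high-content imaging. Cells in PBS pH 7.4 with EDTA and 2% BSA had 1 hr compound pre-incubation, then 75 min capture at room temperature.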

SMILES	AC50 [1]	IC50 [2]	EC50 [3]	EC50 [4]
Cc1c(COc2cc(OCc3cncc(C#N)c3)c(CNC[C@H](O)CC(=O)O)cc2Cl)cccc1-c1cccc(COc2cc(OCc3cncc(C#N)c3)c(CNC[C@H](O)CC(=O)O)cc2Cl)c1C [Example 162, (3R,3′R)-4,4′-((((((2,2′-dimethyl-[1,1′-biphenyl]-3,3′-diyl)bis(methylene))bis(oxy))bis(5-chloro-2-((5-cyanopyridin-3-yl)methoxy)-4,1-phenylene))bis(methylene))bis(azanediyl))bis(3-hydroxybutanoic acid)]	236 nM	0.2 nM	160 nM	263 nM
COc1nc(OCc2cccc(-c3cccc(COc4nc(OC)c(CNC[C@@H](O)C(=O)O)cc4Cl)c3C)c2C)c(Cl)cc1CNC[C@@H](O)C(=O)O [Example 167, (2R,2′R)-3,3′-((((((2,2′-dimethyl-[1,1′-biphenyl]-3,3′-diyl)bis(methylene))bis(oxy))bis(5-chloro-2-methoxypyridine-6,3-diyl))bis(methylene))bis(azanediyl))bis(2-hydroxypropanoic acid)]	≥ 10000 nM	2.2 nM	109 nM	62.3 nM
COc1nc(OCc2cccc(-c3cccc(COc4nc(OC)c(CNCC(=O)O)cc4Cl)c3C)c2C)c(Cl)cc1CNCC(=O)O [Example 178, 2,2′-((((((2,2′-dimethyl-[1,1′-biphenyl]-3,3′-diyl)bis(methylene))bis(oxy))bis(5-chloro-2-methoxypyridine-6,3-diyl))bis(methylene))bis(azanediyl))diacetic acid]	≥ 10000 nM	0.2 nM	115 nM	71.6 nM
Cc1c(COc2cc(OCc3cncc(C#N)c3)c(CNC[C@H](O)C(=O)O)cc2Cl)cccc1-c1cccc(COc2cc(OCc3cncc(C#N)c3)c(CNC[C@H](O)C(=O)O)cc2Cl)c1C [Example 213, (2S,2′S)-3,3′-((((((2,2′-dimethyl-[1,1′-biphenyl]-3,3′-diyl)bis(methylene))bis(oxy))bis(5-chloro-2-((5-cyanopyridin-3-yl)methoxy)-4,1-phenylene))bis(methylene))bis(azanediyl))bis(2-hydroxypropanoic acid)]	255 nM	1.6 nM	182 nM	165 nM
COc1cc(OCc2cccc(-c3cccc(COc4cc(OC)c(CNC[C@@H](O)CC(=O)O)cc4Cl)c3C)c2C)c(Cl)cc1CNC[C@@H](O)CC(=O)O [Example 214, (3S,3′S)-4,4′-((((((2,2′-dimethyl-[1,1′-biphenyl]-3,3′-diyl)bis(methylene))bis(oxy))bis(5-chloro-2-methoxy-4,1-phenylene))bis(methylene))bis(azanediyl))bis(3-hydroxybutanoic acid)]	188 nM	0.2 nM	172 nM	22.3 nM
Cc1c(COc2nc(OCc3cncc(C#N)c3)c(CNC[C@@H](O)CC(=O)O)cc2Br)cccc1-c1cccc(COc2nc(OCc3cncc(C#N)c3)c(CNC[C@@H](O)CC(=O)O)cc2Br)c1C [Example 240, (3S,3′S)-4,4′-((((((2,2′-dimethyl-[1,1′-biphenyl]-3,3′-diyl)bis(methylene))bis(oxy))bis(5-bromo-2-((5-cyanopyridin-3-yl)methoxy)pyridine-6,3-diyl))bis(methylene))bis(azanediyl))bis(3-hydroxybutanoic acid)]	367 nM	0.4 nM	108 nM	217 nM
